Values joined by “and” are separate entries in the source; they are usually repeats but may differ in a detail not shown here. Identical values can stand only once. Active and inactive are the calls of the source. No cut-off for these calls is given here.
Experiments:
Rattus norvegicus [1] = assay: Diuretic activity given as urinary output of 15 mg/kg perorally administered compound in rats; assay type: functional, Urine; settings: route oral
Rattus norvegicus [2] = assay: Saluretic activity was evaluated for K+ by flame photometry at 15 mg/kg perorally; assay type: functional; settings: route oral
Rattus norvegicus [3] = assay: Saluretic activity was evaluated for Na+ by flame photometry at 30 mg/kg perorally; assay type: functional; settings: route oral
Rattus norvegicus [4] = assay: Diuretic activity given as urinary output of 30 mg/kg perorally administered compound in rats; assay type: functional, Urine; settings: route oral
[5] = Ratio of saluretic activity for Na+ over saluretic activity of K+ in rats after peroral administration of 30 mg/kg of compound; assay type: functional; settings: route oral
Rattus norvegicus [6] = assay: Saluretic activity was evaluated for Na+ by flame photometry at 15 mg/kg perorally; assay type: functional; settings: route oral
Rattus norvegicus [7] = assay: Saluretic activity was evaluated for Na+ by flame photometry at 8 mg/kg perorally; assay type: functional; settings: route oral
Rattus norvegicus [8] = assay: Diuretic activity given as urinary output of 8 mg/kg perorally administered compound in rats; assay type: functional, Urine; settings: route oral
Rattus norvegicus [9] = assay: Saluretic activity was evaluated for K+ by flame photometry at 30 mg/kg perorally; assay type: functional; settings: route oral
Rattus norvegicus [10] = assay: Saluretic activity was evaluated for K+ by flame photometry at 8 mg/kg perorally; assay type: functional; settings: route oral
[11] = Ratio of saluretic activity for Na+ over saluretic activity of K+ in rats after peroral administration of 15 mg/kg of compound; assay type: functional; settings: route oral
[12] = Ratio of saluretic activity for Na+ over saluretic activity of K+ in rats after peroral administration of 8 mg/kg of compound; assay type: functional; settings: route oral
[13] = target: T1, Adrenergic receptor beta (Rattus norvegicus) (UniProt P18090+P10608+P26255)
Description: beta-adrenoceptor blocking activity of the intravenously administered compound was evaluated by inhibition of isiprenaline-induced tachycardia in rats; NA indicates not active

[14] = target: Beta-1 adrenergic receptor (Meleagris gallopavo) (UniProt P07700); assay: Inhibition of [3H]dihydroalprenolol binding ([3H]-DHA) to beta-1-adrenoceptor from turkey erythrocyte membranes; Not active
Beta-1 adrenergic receptor (Meleagris gallopavo), sequence (P07700 whole entry, looked up): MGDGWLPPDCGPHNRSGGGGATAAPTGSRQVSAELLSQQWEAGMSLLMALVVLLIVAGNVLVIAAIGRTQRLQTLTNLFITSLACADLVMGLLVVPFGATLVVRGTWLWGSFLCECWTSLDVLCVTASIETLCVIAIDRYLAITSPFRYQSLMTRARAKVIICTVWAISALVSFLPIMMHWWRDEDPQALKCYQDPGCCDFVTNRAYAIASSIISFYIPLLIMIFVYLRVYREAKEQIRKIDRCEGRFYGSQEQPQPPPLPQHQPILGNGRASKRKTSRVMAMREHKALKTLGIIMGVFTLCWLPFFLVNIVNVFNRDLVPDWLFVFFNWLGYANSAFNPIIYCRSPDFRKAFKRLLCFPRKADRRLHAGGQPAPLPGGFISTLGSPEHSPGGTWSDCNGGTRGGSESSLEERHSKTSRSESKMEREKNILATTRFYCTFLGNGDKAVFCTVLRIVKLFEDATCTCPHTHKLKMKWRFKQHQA

Rattus norvegicus [15] = assay: Saluretic activity was evaluated for K+ by flame photometry at 50 mg/kg perorally; assay type: functional; settings: route oral
[16] = Ratio of saluretic activity for Na+ over saluretic activity of K+ in rats after peroral administration of 50 mg/kg of compound; assay type: functional; settings: route oral
Rattus norvegicus [17] = assay: Saluretic activity was evaluated for Na+ by flame photometry at 50 mg/kg perorally; assay type: functional; settings: route oral
Rattus norvegicus [18] = assay: Diuretic activity given as urinary output at 15 mg/kg perorally; assay type: functional, Urine; settings: route oral
Rattus norvegicus [19] = assay: Diuretic activity given as urinary output of 50 mg/kg perorally administered compound in rats; assay type: functional, Urine; settings: route oral
[20] = target: Beta-1 adrenergic receptor (Homo sapiens, UniProt P08588)
Beta-1 adrenergic receptor, sequence (P08588 whole entry): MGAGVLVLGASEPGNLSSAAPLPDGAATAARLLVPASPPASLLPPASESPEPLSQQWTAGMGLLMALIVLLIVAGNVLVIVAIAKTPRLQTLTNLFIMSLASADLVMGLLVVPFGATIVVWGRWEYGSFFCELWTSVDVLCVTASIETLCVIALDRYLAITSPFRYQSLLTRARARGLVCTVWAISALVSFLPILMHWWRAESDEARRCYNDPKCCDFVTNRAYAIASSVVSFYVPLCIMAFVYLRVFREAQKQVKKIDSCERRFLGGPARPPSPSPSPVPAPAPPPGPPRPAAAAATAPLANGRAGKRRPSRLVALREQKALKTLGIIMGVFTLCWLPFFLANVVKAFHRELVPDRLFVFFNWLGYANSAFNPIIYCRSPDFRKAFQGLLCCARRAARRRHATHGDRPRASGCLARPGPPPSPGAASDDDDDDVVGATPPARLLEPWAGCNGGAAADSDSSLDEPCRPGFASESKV

[21] = target: T1, Adrenergic receptor beta (Rattus norvegicus); remark: listed apart in the source
Description: beta-adrenoceptor blocking activity of the perorally administered compound was evaluated by inhibition of isiprenaline-induced tachycardia in rats; NA indicates not active

| SMILES | Ki [20] | Urinary output (Rattus norvegicus [1]) [mL] | Activity (Rattus norvegicus [2]) [m equiv kg-1] | Activity (Rattus norvegicus [3]) [m equiv kg-1] | Urinary output (Rattus norvegicus [4]) [mL] | Ratio [5] | Activity (Rattus norvegicus [6]) [m equiv kg-1] | Activity (Rattus norvegicus [7]) [m equiv kg-1] | Urinary output (Rattus norvegicus [8]) [mL] | Activity (Rattus norvegicus [9]) [m equiv kg-1] | Activity (Rattus norvegicus [10]) [m equiv kg-1] | Ratio [11] | Ratio [12] | further results |
| --- | --- | --- | --- | --- | --- | --- | --- | --- | --- | --- | --- | --- | --- | --- |
| NS(=O)(=O)c1cc(N2CCN(CC(O)COc3cccc4ccccc34)CC2)ccc1Cl (stereo not given) | – | 2.2 | 1.4 | 3.2 | 2.9 | 1.4 | 1.7 | 2.4 | 1.9 | 2 | 1.3 | 1.2 | 1.8 | – |
| NS(=O)(=O)c1cc(C(=O)NCCNCC(O)COc2cccc3c2CCC(=O)N3)ccc1Cl (stereo not given) | – | 2.6 | 1.5 | 2.9 | 3.3 | 1.6 | 2 | 2.6 | 2.8 | 1.8 | 1.8 | 1.3 | 1.4 | – |
| NS(=O)(=O)c1cc(S(=O)(=O)NCCNCC(O)COc2cccc3c2SCC(=O)N3)ccc1Cl (stereo not given) | – | 3.7 | 1.3 | 4.5 | 5.7 | 1.9 | 3 | 3.2 | 3.5 | 2.4 | 1.3 | 2.3 | 2.5 | – |
| NS(=O)(=O)c1cc(C(=O)NCCNCC(O)COc2cccc3ccccc23)ccc1Cl (stereo not given) | – | 4.8 | 1.7 | 1.8 | 2.9 | 1.2 | 3.1 | 2.5 | 5.2 | 1.4 | 1.2 | 1.8 | 2.1 | – |
| NS(=O)(=O)c1cc(NCCNCC(O)COc2cccc3ccccc23)ccc1Cl (stereo not given) | – | 3.2 | 2 | 3.2 | 3.5 | 1.2 | 3.1 | 2.8 | 2.4 | 2.6 | 1.6 | 1.5 | 1.7 | ED50 [13]: inactive |
| NS(=O)(=O)c1cc(C(=O)N2CCN(CC(O)COc3cccc4ccccc34)CC2)ccc1Cl (stereo not given) | – | – | – | – | – | – | – | – | – | – | – | – | – | Ki [14]: Not Active |
| NS(=O)(=O)c1cc(C(=O)NCCNCC(O)COc2cccc3c2SCC(=O)N3)ccc1Cl (stereo not given) | – | – | 0.9 | 1.7 | 2 | 1.5 | 1.1 | 0.9 | 1.2 | 1.1 | 0.8 | 1.2 | 1.1 | Activity (Rattus norvegicus [15]): 1.5 m equiv kg-1; Ratio [16]: 2.1; Activity (Rattus norvegicus [17]): 3.1 m equiv kg-1; Urinary output (Rattus norvegicus [18]): 1.7 mL; Urinary output (Rattus norvegicus [19]): 4.3 mL |
| NS(=O)(=O)c1cc(N2CCN(CC(O)COc3cccc4c3SCC(=O)N4)CC2)ccc1Cl (stereo not given) | – | 3.1 | 1.8 | 3 | 3.5 | 1.5 | 2.9 | 2.2 | 2.6 | 2 | 1.7 | 1.6 | 1.3 | ED50 [13]: inactive |
| NS(=O)(=O)c1cc(S(=O)(=O)NCCNCC(O)COc2cccc3c2CCC(=O)N3)ccc1Cl (stereo not given) | – | – | 1.2 | 3.4 | – | 2.3 | 2.3 | 1.8 | 2.2 | 1.5 | 0.9 | 1.9 | 2 | Urinary output (Rattus norvegicus [1]; 15 mg/kg): 3.1 mL and 4.6 mL |
| NS(=O)(=O)c1cc(S(=O)(=O)NCCNCC(O)COc2cccc3ccccc23)ccc1Cl (stereo not given) | – | – | – | – | – | – | – | – | – | – | – | – | – | ED50 [21]: inactive; ED50 [13]: inactive |
| NS(=O)(=O)c1cc2c(cc1Cl)NCNS2(=O)=O [HYDROCHLOROTHIAZIDE] | – | 5.9 | 1.9 | 5.1 | 7.3 | 2.2 | 3.9 | 3.1 | 4 | 2.3 | 1.8 | 2 | 1.7 | – |
| NS(=O)(=O)c1cc(NCCNCC(O)COc2cccc3c2SCC(=O)N3)ccc1Cl (stereo not given) | – | 3.3 | 1.3 | 2.2 | 3.1 | 1.8 | 2.6 | 2.1 | 2.6 | 1.2 | 1.1 | 2 | 1.9 | – |

Continued, in another order:

| Ki [20] | SMILES | Urinary output (Rattus norvegicus [1]) [mL] | Activity (Rattus norvegicus [2]) [m equiv kg-1] | Activity (Rattus norvegicus [3]) [m equiv kg-1] | Urinary output (Rattus norvegicus [4]) [mL] | Ratio [5] | Activity (Rattus norvegicus [6]) [m equiv kg-1] | Activity (Rattus norvegicus [7]) [m equiv kg-1] | Urinary output (Rattus norvegicus [8]) [mL] | Activity (Rattus norvegicus [9]) [m equiv kg-1] | Activity (Rattus norvegicus [10]) [m equiv kg-1] | Ratio [11] | Ratio [12] | further results |
| --- | --- | --- | --- | --- | --- | --- | --- | --- | --- | --- | --- | --- | --- | --- |
| Not Active | NS(=O)(=O)c1cc(S(=O)(=O)N2CCN(CC(O)COc3cccc4ccccc34)CC2)ccc1Cl (stereo not given) | – | – | – | – | – | – | – | – | – | – | – | – | – |
| Not Active | NS(=O)(=O)c1cc(S(=O)(=O)N2CCN(CC(O)COc3cccc4c3SCC(=O)N4)CC2)ccc1Cl (stereo not given) | – | – | – | – | – | – | – | – | – | – | – | – | – |
| Not Active | NS(=O)(=O)c1cc(S(=O)(=O)N2CCN(CC(O)COc3cccc4c3CCC(=O)N4)CC2)ccc1Cl (stereo not given) | – | – | – | – | – | – | – | – | – | – | – | – | – |
| Not Active | NS(=O)(=O)c1cc(C(=O)N2CCN(CC(O)COc3cccc4c3CCC(=O)N4)CC2)ccc1Cl (stereo not given) | – | – | – | – | – | – | – | – | – | – | – | – | – |
| Not Active | NS(=O)(=O)c1cc(C(=O)N2CCN(CC(O)COc3cccc4c3SCC(=O)N4)CC2)ccc1Cl (stereo not given) | – | – | – | – | – | – | – | – | – | – | – | – | – |
| Not Active | NS(=O)(=O)c1cc(NCCNCC(O)COc2cccc3c2CCC(=O)N3)ccc1Cl (stereo not given) | – | – | – | – | – | – | – | – | – | – | – | – | – |
| Not Active | NS(=O)(=O)c1cc(N2CCN(CC(O)COc3cccc4c3CCC(=O)N4)CC2)ccc1Cl (stereo not given) | – | – | – | – | – | – | – | – | – | – | – | – | – |
